Read-outs that look alike come from different tables or passages of the source. Starred links: 1 amine or outer side, 2 acyl side, 3 side chain; linkers in the order of their positions; H or OH if unused. Non-standard residues stand in square brackets, D forms with d. Residues, ends and D or L forms follow the SMILES beside them. Groups on a side chain read outwards from the residue. *: point of attachment. C20 diacid = O=C(O)CCCCCCCCCCCCCCCCCCC(=O)*; Pro(cis-4-F) = O=C(O)[C@@H]1C[C@H](F)CN1; γGlu = O=C(O)[C@H](CCC(=O)[*:2])N[*:1]; NMeI = CC[C@H](C)[C@H](NC)C(=O)O; Nle = CCCC[C@H](N)C(=O)O; Ac5c = NC1(C(=O)O)CCCC1; AEEA = NCCOCCOCC(=O)O; Aib = CC(C)(N)C(=O)O

Assay [1] concerns the target T1, hCRHR1 (Homo sapiens, UniProt P34998).
T1 sequence (P34998 24-415): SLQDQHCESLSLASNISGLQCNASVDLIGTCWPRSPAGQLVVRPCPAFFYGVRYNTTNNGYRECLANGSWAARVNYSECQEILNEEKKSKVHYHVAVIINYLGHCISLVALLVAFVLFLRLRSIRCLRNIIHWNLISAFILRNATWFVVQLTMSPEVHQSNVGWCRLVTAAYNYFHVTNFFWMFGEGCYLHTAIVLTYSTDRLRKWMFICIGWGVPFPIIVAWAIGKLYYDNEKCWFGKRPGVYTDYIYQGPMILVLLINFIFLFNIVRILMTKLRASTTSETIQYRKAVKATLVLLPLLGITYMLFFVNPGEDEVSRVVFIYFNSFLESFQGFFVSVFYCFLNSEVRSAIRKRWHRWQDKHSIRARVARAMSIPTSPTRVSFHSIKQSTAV
In words: HTRF cAMP assay, determination of hCRHR1 potency (peptide libraries 5 conc., purified peptides 11 conc.). It counts as cell-based. In short, it runs like this:
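Cellular cAMP was read by time-resolved FRET between d2-labelled cAMP and cryptate anti-cAMP antibody. The cells were freshly thawed suspension CHO-K1 cells stably expressing human CRHR1.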

In assay [2] the target is T2, hCRHR2 (Homo sapiens, UniProt Q13324).
T2 sequence (Q13324 1-411): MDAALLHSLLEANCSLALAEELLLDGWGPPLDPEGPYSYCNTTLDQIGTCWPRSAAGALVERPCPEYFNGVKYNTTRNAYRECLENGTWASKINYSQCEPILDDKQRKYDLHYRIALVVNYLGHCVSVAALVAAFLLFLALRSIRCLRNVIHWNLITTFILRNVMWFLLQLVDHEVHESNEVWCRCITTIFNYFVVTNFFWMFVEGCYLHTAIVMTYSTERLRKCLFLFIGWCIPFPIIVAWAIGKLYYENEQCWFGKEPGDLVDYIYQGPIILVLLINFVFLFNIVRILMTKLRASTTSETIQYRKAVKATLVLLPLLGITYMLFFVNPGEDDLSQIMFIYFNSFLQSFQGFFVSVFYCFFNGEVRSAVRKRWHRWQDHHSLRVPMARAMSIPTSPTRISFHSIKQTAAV
In words: HTRF cAMP assay, determination of hCRHR2 potency (peptide libraries 5 conc., purified peptides 11 conc.). The format is cell-based. A digest of the protocol: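 EC50 derived by variable-slope sigmoid regression of FRET-based cAMP data; cellular cAMP displaced d2-labelled tracer from cryptate anti-cAMP antibody. Stable human CRHR2 CHO-K1 suspension cells, revived from frozen stocks just before the run.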

Where [3] appears, read: library peptides, matched molecular pairs L vs Nle in position X^38, read-out: Potency hCRHR1 pEC50 (converted).
Where [4] appears, read: library peptides, matched molecular pairs L vs Nle in position X^38, read-out: Potency hCRHR2 pEC50 (converted).

For `CCCC[C@H](NC(=O)[C@@H](NC(=O)[C@H](CCC(=O)O)NC(=O)[C@H](C)NC(=O)[C@H](CC(N)=O)NC(=O)[C@@H](NC(=O)[C@H](CCCCNC(=O)COCCOCCNC(=O)COCCOCCNC(=O)CC[C@H](NC(=O)CC[C@H](NC(=O)CCCCCCCCCCCCCCCCCCC(=O)O)C(=O)O)C(=O)O)NC(=O)[C@H](C)NC(=O)[C@H](CCC(N)=O)NC(=O)[C@H](CCC(=O)O)NC(=O)[C@H](CCCNC(=N)N)NC(=O)[C@H](C)NC(=O)[C@H](CCC(N)=O)NC(=O)[C@H](CCCNC(=N)N)NC(=O)[C@H](C)NC(=O)[C@H](CCCNC(=N)N)NC(=O)[C@H](C)NC(=O)[C@H](CCC(N)=O)NC(=O)[C@H](CCC(=O)O)NC(=O)[C@H](CC(C)C)NC(=O)[C@H](CC(C)C)NC(=O)[C@@H](NC(=O)[C@H](CCC(N)=O)NC(=O)[C@H](CC(C)C)NC(=O)[C@H](CC(C)C)NC(=O)CNC(=O)[C@@H](NC(=O)[C@@H]1CCCN1C(=O)[C@@H](NC(=O)[C@H](CC(=O)O)NC(=O)[C@H](CC(C)C)NC(=O)[C@H](CO)NC(=O)[C@H](CC(C)C)NC(=O)[C@@H](NC(=O)[C@@H](N)[C@@H](C)CC)C(C)C)C(C)C)[C@@H](C)CC)[C@@H](C)CC)[C@@H](C)O)[C@@H](C)CC)C(=O)N[C@@H](C)C(=O)N[C@@H](CCC(=O)O)C(=O)N[C@H](C(N)=O)C(C)C` [compound 53] (H-IVLSLDVPIGLLQILLEQARARQAREQAK([AEEA-AEEA-γGlu-γGlu-C20 diacid])TNAEI[Nle]AEV-NH2), the EC50 in assay [1] (setting [3]) is 251 nM; in assay [2] (setting [4]) it was 0.316 nM.

With `CC[C@H](C)[C@H](N)C(=O)N[C@H](C(=O)N[C@@H](CC(C)C)C(=O)N[C@@H](CO)C(=O)N[C@@H](CC(C)C)C(=O)N[C@@H](CC(=O)O)C(=O)NC1(C(=O)N2C[C@@H](F)C[C@H]2C(=O)N[C@H](C(=O)NCC(=O)N[C@@H](CC(C)C)C(=O)N[C@@H](CC(C)C)C(=O)N[C@@H](CCC(N)=O)C(=O)N[C@H](C(=O)N[C@@H](CC(C)C)C(=O)N[C@@H](CC(C)C)C(=O)N[C@@H](CCC(=O)O)C(=O)N[C@@H](CCC(N)=O)C(=O)N[C@@H](C)C(=O)N[C@@H](CCCNC(=N)N)C(=O)N[C@@H](C)C(=O)N[C@@H](CCCNC(=N)N)C(=O)N[C@@H](C)C(=O)N[C@@H](C)C(=O)N[C@@H](CCCNC(=N)N)C(=O)N[C@@H](CCC(=O)O)C(=O)N[C@@H](CCC(N)=O)C(=O)N[C@@H](C)C(=O)N[C@@H](CCCCNC(=O)COCCOCCNC(=O)COCCOCCNC(=O)CC[C@H](NC(=O)CC[C@H](NC(=O)CCCCCCCCCCCCCCCCCCC(=O)O)C(=O)O)C(=O)O)C(=O)N[C@H](C(=O)N[C@@H](CC(N)=O)C(=O)N[C@@H](C)C(=O)N[C@@H](CCC(=O)O)C(=O)N[C@H](C(=O)N[C@@H](CC(C)C)C(=O)N[C@@H](C)C(=O)N[C@@H](CCC(=O)O)C(=O)N[C@H](C(N)=O)C(C)C)[C@@H](C)CC)[C@@H](C)O)[C@@H](C)CC)[C@@H](C)CC)CCCC1)C(C)C` [compound 86] (H-IVLSLD[Ac5c][Pro(cis-4-F)]IGLLQILLEQARARAAREQAK([AEEA-AEEA-γGlu-γGlu-C20 diacid])TNAEILAEV-NH2), the EC50 was 3.16 nM in assay [1] (setting [3]) and 0.631 nM in assay [2] (setting [4]).

On to `CC[C@H](C)[C@H](N)C(=O)N[C@H](C(=O)N[C@@H](CC(C)C)C(=O)N[C@@H](CO)C(=O)N[C@@H](CC(C)C)C(=O)N[C@@H](CC(=O)O)C(=O)N[C@H](C(=O)N1CCC[C@H]1C(=O)N[C@H](C(=O)NCC(=O)N[C@@H](CC(C)C)C(=O)N[C@@H](CC(C)C)C(=O)N[C@@H](CCC(N)=O)C(=O)N[C@H](C(=O)N[C@@H](CC(C)C)C(=O)N[C@@H](CC(C)C)C(=O)N[C@@H](CCC(=O)O)C(=O)N[C@@H](CCC(N)=O)C(=O)N[C@@H](C)C(=O)N[C@@H](CCCNC(=N)N)C(=O)N[C@@H](C)C(=O)N[C@@H](CCCNC(=N)N)C(=O)N[C@@H](C)C(=O)N[C@@H](CC(C)C)C(=O)N[C@@H](CCCNC(=N)N)C(=O)N[C@@H](CCC(=O)O)C(=O)N[C@@H](CCC(=O)O)C(=O)N[C@@H](C)C(=O)N[C@@H](CCCCNC(=O)COCCOCCNC(=O)COCCOCCNC(=O)CC[C@H](NC(=O)CC[C@H](NC(=O)CCCCCCCCCCCCCCCCCCC(=O)O)C(=O)O)C(=O)O)C(=O)N[C@H](C(=O)N[C@@H](CC(N)=O)C(=O)N[C@@H](C)C(=O)N[C@@H](CCC(=O)O)C(=O)N[C@H](C(=O)N[C@@H](CC(C)C)C(=O)N[C@@H](C)C(=O)N[C@@H](CCC(=O)O)C(=O)N[C@H](C(N)=O)C(C)C)[C@@H](C)CC)[C@@H](C)O)[C@@H](C)CC)[C@@H](C)CC)C(C)C)C(C)C` [compound 50] (H-IVLSLDVPIGLLQILLEQARARALREEAK([AEEA-AEEA-γGlu-γGlu-C20 diacid])TNAEILAEV-NH2), for which the EC50 in assay [1] (setting [3]) was 158000 nM; in assay [2] (setting [4]) it was 2 nM.

On to `CCCC[C@H](NC(=O)[C@@H](NC(=O)[C@H](CCC(=O)O)NC(=O)C(C)(C)NC(=O)[C@H](CC(N)=O)NC(=O)[C@@H](NC(=O)[C@H](CCCCNC(=O)COCCOCCNC(=O)COCCOCCNC(=O)CC[C@H](NC(=O)CC[C@H](NC(=O)CCCCCCCCCCCCCCCCCCC(=O)O)C(=O)O)C(=O)O)NC(=O)[C@H](C)NC(=O)[C@H](CCC(N)=O)NC(=O)[C@H](CCC(=O)O)NC(=O)[C@H](CCCNC(=N)N)NC(=O)[C@H](C)NC(=O)[C@H](C)NC(=O)[C@H](CCCNC(=N)N)NC(=O)[C@H](C)NC(=O)[C@H](CCCNC(=N)N)NC(=O)[C@H](C)NC(=O)[C@H](CCC(N)=O)NC(=O)[C@@H](NC(=O)[C@H](CC(C)C)NC(=O)[C@H](CC(C)C)NC(=O)[C@@H](NC(=O)[C@H](CCC(N)=O)NC(=O)[C@H](CC(C)C)NC(=O)[C@H](CC(C)C)NC(=O)CNC(=O)[C@@H](NC(=O)[C@@H]1CCCN1C(=O)[C@@H](NC(=O)[C@H](CC(=O)O)NC(=O)[C@H](CC(C)C)NC(=O)[C@H](CO)NC(=O)[C@H](CC(C)C)NC(=O)[C@@H](NC(=O)[C@@H](NC)[C@@H](C)CC)C(C)C)C(C)C)[C@@H](C)CC)[C@@H](C)CC)[C@@H](C)O)[C@@H](C)O)[C@@H](C)CC)C(=O)N[C@@H](C)C(=O)N[C@@H](CCC(=O)O)C(=O)N[C@H](C(N)=O)C(C)C` [compound 217] (H-[NMeI]VLSLDVPIGLLQILLTQARARAAREQAK([AEEA-AEEA-γGlu-γGlu-C20 diacid])TN[Aib]EI[Nle]AEV-NH2), for which the EC50 in assay [1] (Table 4, library peptides having X^38 = Nle, read-out: hCRHR1 pEC50 (converted)) is 1000 nM; in assay [2] (Table 4, library peptides having X^38 = Nle, read-out: hCRHR2 pEC50 (converted)) it was 0.0398 nM.

Take `CCCC[C@H](NC(=O)[C@@H](NC(=O)[C@H](CCC(=O)O)NC(=O)[C@H](C)NC(=O)[C@H](CC(N)=O)NC(=O)[C@@H](NC(=O)[C@H](CCCCNC(=O)COCCOCCNC(=O)COCCOCCNC(=O)CC[C@H](NC(=O)CC[C@H](NC(=O)CCCCCCCCCCCCCCCCCCC(=O)O)C(=O)O)C(=O)O)NC(=O)[C@H](C)NC(=O)[C@H](CCC(N)=O)NC(=O)[C@H](CCC(=O)O)NC(=O)[C@H](CCCNC(=N)N)NC(=O)[C@H](C)NC(=O)[C@H](C)NC(=O)[C@H](CCC(N)=O)NC(=O)[C@H](C)NC(=O)[C@H](CCCNC(=N)N)NC(=O)[C@H](C)NC(=O)[C@H](CCC(N)=O)NC(=O)[C@H](CCC(=O)O)NC(=O)[C@H](CC(C)C)NC(=O)[C@H](CC(C)C)NC(=O)[C@@H](NC(=O)[C@H](CCC(N)=O)NC(=O)[C@H](CC(C)C)NC(=O)[C@H](CC(C)C)NC(=O)CNC(=O)[C@@H](NC(=O)[C@@H]1CCCN1C(=O)[C@@H](NC(=O)[C@H](CC(=O)O)NC(=O)[C@H](CC(C)C)NC(=O)[C@H](CO)NC(=O)[C@H](CC(C)C)NC(=O)[C@@H](NC(=O)[C@@H](N)[C@@H](C)CC)C(C)C)C(C)C)[C@@H](C)CC)[C@@H](C)CC)[C@@H](C)O)[C@@H](C)CC)C(=O)N[C@@H](C)C(=O)N[C@@H](CCC(=O)O)C(=O)N[C@H](C(N)=O)[C@@H](C)CC` [SEQ ID NO: 44] (H-IVLSLDVPIGLLQILLEQARAQAAREQAK([AEEA-AEEA-γGlu-γGlu-C20 diacid])TNAEI[Nle]AEI-NH2): the EC50 in assay [1] (Table 3, matched molecular pairs X^38 L vs Nle, peptide library of Example 4, read-out: hCRHR1 pEC50 (converted)) is 1260 nM; in assay [2] (Table 3, matched molecular pairs X^38 L vs Nle, peptide library of Example 4, read-out: hCRHR2 pEC50 (converted)), 0.1 nM.

Values taken from patent EP4810052A2, “HCRHR2 SELECTIVE POLYPEPTIDES” (Gubra A/S, priority 2023, dated 2026).
